Test results as given in patent US7385026B1, “Modified ghrelin polypeptides” (priority 1999, dated 2008).

molecular target: T1, rat GHS-receptor (GHR-R) (Rattus norvegicus, UniProt O08725); assay: Ca-releasing activity (increase in intracellular calcium) in CHO-GHSR62 cells, FLIPR; type: cell-based; conditions: CHO-GHSR62 cells (CHO cells expressing rat GHS receptor), FLIPR; read-out: Ca-releasing activity EC50
T1 construct: A full-length cDNA for rat GHR-R was obtained by RT-PCR; expressed in transfected cells
T1 sequence (O08725 whole entry): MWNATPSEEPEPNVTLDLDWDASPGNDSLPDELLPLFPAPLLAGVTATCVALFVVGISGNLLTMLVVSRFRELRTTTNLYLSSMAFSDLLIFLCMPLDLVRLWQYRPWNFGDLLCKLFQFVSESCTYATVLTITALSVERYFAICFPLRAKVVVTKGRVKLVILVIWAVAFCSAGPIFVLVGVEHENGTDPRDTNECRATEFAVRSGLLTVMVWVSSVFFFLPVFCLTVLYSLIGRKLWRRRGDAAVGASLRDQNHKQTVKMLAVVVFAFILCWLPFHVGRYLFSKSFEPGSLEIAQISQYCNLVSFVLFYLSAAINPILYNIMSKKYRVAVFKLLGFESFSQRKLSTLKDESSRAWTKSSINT
Procedure, shortened: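 CHO cells stably expressing full-length rat GHS-R (CHO-GHSR62) were cultured 12–15 h, loaded with 4 μM Fluo4 for 1 h and washed with Hank's BSS containing 20 mM Hepes and 2.5 mM probenecid. Ca-releasing activity of ghrelin peptides, fragments or derivatives was read by FLIPR as the fluorescence change after sample addition.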

For `CCCCCCCNC(=O)C[C@H](NC(=O)[C@H](CO)NC(=O)CN)C(=O)N[C@@H](Cc1ccccc1)C(=O)N[C@@H](CC(C)C)C(=O)N[C@@H](CO)C(=O)N1CCC[C@H]1C(=O)N[C@@H](CCC(=O)O)C(=O)N[C@@H](Cc1c[nH]cn1)C(=O)N[C@@H](CCC(N)=O)C(=O)N[C@@H](CCCNC(=N)N)C(=O)N[C@H](C(=O)N[C@@H](CCC(N)=O)C(=O)N[C@@H](CCC(N)=O)C(=O)N[C@@H](CCCNC(=N)N)C(=O)N[C@@H](CCCCN)C(=O)N[C@@H](CCC(=O)O)C(=O)N[C@@H](CO)C(=O)N[C@@H](CCCCN)C(=O)N[C@@H](CCCCN)C(=O)N1CCC[C@H]1C(=O)N1CCC[C@H]1C(=O)N[C@@H](C)C(=O)N[C@@H](CCCCN)C(=O)N[C@@H](CC(C)C)C(=O)N[C@@H](CCC(N)=O)C(=O)N1CCC[C@H]1C(=O)N[C@@H](CCCNC(=N)N)C(=O)O)C(C)C` [Compound 55, [Asp^3(NH-Heptyl)]-hGhrelin], which EC50 is on record?
Its EC50 is 11 nM.

Which EC50 does the source give for `CCCCCCCC(=O)NC[C@H](NC(=O)[C@H](CO)NC(=O)CN)C(=O)N[C@@H](Cc1ccccc1)C(=O)N[C@@H](CC(C)C)C(=O)N[C@@H](CO)C(=O)N1CCC[C@H]1C(=O)N[C@@H](CCC(=O)O)C(=O)N[C@@H](Cc1cnc[nH]1)C(=O)N[C@@H](CCC(N)=O)C(=O)N[C@@H](CCCNC(=N)N)C(=O)N[C@H](C(=O)N[C@@H](CCC(N)=O)C(=O)N[C@@H](CCC(N)=O)C(=O)N[C@@H](CCCNC(=N)N)C(=O)N[C@@H](CCCCN)C(=O)N[C@@H](CCC(=O)O)C(=O)N[C@@H](CO)C(=O)N[C@@H](CCCCN)C(=O)N[C@@H](CCCCN)C(=O)N1CCC[C@H]1C(=O)N1CCC[C@H]1C(=O)N[C@@H](C)C(=O)N[C@@H](CCCCN)C(=O)N[C@@H](CC(C)C)C(=O)N[C@@H](CCC(N)=O)C(=O)N1CCC[C@H]1C(=O)N[C@@H](CCCNC(=N)N)C(=O)O)C(C)C` [Compound 56, [Dap^3(Octanoyl)]-hGhrelin] here?
The EC50 was 2.6 nM.

For `CCCCCCCSSC[C@H](NC(=O)[C@H](CO)NC(=O)CN)C(=O)N[C@@H](Cc1ccccc1)C(=O)N[C@@H](CC(C)C)C(=O)N[C@@H](CO)C(=O)N1CCC[C@H]1C(=O)N[C@@H](CCC(=O)O)C(=O)N[C@@H](Cc1c[nH]cn1)C(=O)N[C@@H](CCC(N)=O)C(=O)N[C@@H](CCCNC(=N)N)C(=O)N[C@H](C(=O)N[C@@H](CCC(N)=O)C(=O)N[C@@H](CCC(N)=O)C(=O)N[C@@H](CCCNC(=N)N)C(=O)N[C@@H](CCCCN)C(=O)N[C@@H](CCC(=O)O)C(=O)N[C@@H](CO)C(=O)N[C@@H](CCCCN)C(=O)N[C@@H](CCCCN)C(=O)N1CCC[C@H]1C(=O)N1CCC[C@H]1C(=O)N[C@@H](C)C(=O)N[C@@H](CCCCN)C(=O)N[C@@H](CC(C)C)C(=O)N[C@@H](CCC(N)=O)C(=O)N1CCC[C@H]1C(=O)N[C@@H](CCCNC(=N)N)C(=O)O)C(C)C` [Compound 57], which EC50 is on record?
The EC50 was 1.4 nM.

How did the EC50 turn out when `CCCCCCCC(=O)O[C@H](C)[C@H](NC(=O)[C@H](CO)NC(=O)CN)C(=O)N[C@@H](Cc1ccccc1)C(=O)N[C@@H](CC(C)C)C(=O)N[C@@H](CO)C(=O)N1CCC[C@H]1C(=O)N[C@@H](CCC(=O)O)C(=O)N[C@@H](Cc1c[nH]cn1)C(=O)N[C@@H](CCC(N)=O)C(=O)N[C@@H](CCCNC(=N)N)C(=O)N[C@H](C(=O)N[C@@H](CCC(N)=O)C(=O)N[C@@H](CCC(N)=O)C(=O)N[C@@H](CCCNC(=N)N)C(=O)N[C@@H](CCCCN)C(=O)N[C@@H](CCC(=O)O)C(=O)N[C@@H](CO)C(=O)N[C@@H](CCCCN)C(=O)N[C@@H](CCCCN)C(=O)N1CCC[C@H]1C(=O)N1CCC[C@H]1C(=O)N[C@@H](C)C(=O)N[C@@H](CCCCN)C(=O)N[C@@H](CC(C)C)C(=O)N[C@@H](CCC(N)=O)C(=O)N1CCC[C@H]1C(=O)N[C@@H](CCCNC(=N)N)C(=O)O)C(C)C` [Compound 59, [Thr^3(Octanoyl)]-hGhrelin] was run?
Its EC50 is 10 nM.

For `CC(C)C[C@H](NC(=O)[C@H](CCCCN)NC(=O)[C@H](C)NC(=O)[C@@H]1CCCN1C(=O)[C@@H]1CCCN1C(=O)[C@H](CCCCN)NC(=O)[C@H](CCCCN)NC(=O)[C@H](CO)NC(=O)[C@H](CCC(=O)O)NC(=O)[C@H](CCCCN)NC(=O)[C@H](CCCNC(=N)N)NC(=O)[C@H](CCC(N)=O)NC(=O)[C@H](CCC(N)=O)NC(=O)[C@@H](NC(=O)[C@H](CCCNC(=N)N)NC(=O)[C@H](CCC(N)=O)NC(=O)[C@H](Cc1c[nH]cn1)NC(=O)[C@H](CCC(=O)O)NC(=O)[C@@H]1CCCN1C(=O)[C@H](CO)NC(=O)[C@H](CC(C)C)NC(=O)[C@H](Cc1ccccc1)NC(=O)[C@H](Cc1c[nH]c2ccccc12)NC(=O)[C@H](CO)NC(=O)CN)C(C)C)C(=O)N[C@@H](CCC(N)=O)C(=O)N1CCC[C@H]1C(=O)N[C@@H](CCCNC(=N)N)C(=O)O` [Compound 62, [Trp^3]-hGhrelin], which EC50 is on record?
Its EC50 is 31 nM.

Which EC50 does the source give for `CC(C)C[C@H](NC(=O)[C@H](CCCCN)NC(=O)[C@H](C)NC(=O)[C@@H]1CCCN1C(=O)[C@@H]1CCCN1C(=O)[C@H](CCCCN)NC(=O)[C@H](CCCCN)NC(=O)[C@H](CO)NC(=O)[C@H](CCC(=O)O)NC(=O)[C@H](CCCCN)NC(=O)[C@H](CCCNC(=N)N)NC(=O)[C@H](CCC(N)=O)NC(=O)[C@H](CCC(N)=O)NC(=O)[C@@H](NC(=O)[C@H](CCCNC(=N)N)NC(=O)[C@H](CCC(N)=O)NC(=O)[C@H](Cc1c[nH]cn1)NC(=O)[C@H](CCC(=O)O)NC(=O)[C@@H]1CCCN1C(=O)[C@H](CO)NC(=O)[C@H](CC(C)C)NC(=O)[C@H](Cc1ccccc1)NC(=O)[C@H](CC1CCCCC1)NC(=O)[C@H](CO)NC(=O)CN)C(C)C)C(=O)N[C@@H](CCC(N)=O)C(=O)N1CCC[C@H]1C(=O)N[C@@H](CCCNC(=N)N)C(=O)O` [Compound 64, [Cha^3]-hGhrelin] here?
The EC50 was 19 nM.

How did the EC50 turn out when `CC(C)C[C@H](NC(=O)[C@H](CCCCN)NC(=O)[C@H](C)NC(=O)[C@@H]1CCCN1C(=O)[C@@H]1CCCN1C(=O)[C@H](CCCCN)NC(=O)[C@H](CCCCN)NC(=O)[C@H](CO)NC(=O)[C@H](CCC(=O)O)NC(=O)[C@H](CCCCN)NC(=O)[C@H](CCCNC(=N)N)NC(=O)[C@H](CCC(N)=O)NC(=O)[C@H](CCC(N)=O)NC(=O)[C@@H](NC(=O)[C@H](CCCNC(=N)N)NC(=O)[C@H](CCC(N)=O)NC(=O)[C@H](Cc1c[nH]cn1)NC(=O)[C@H](CCC(=O)O)NC(=O)[C@@H]1CCCN1C(=O)[C@H](CO)NC(=O)[C@H](CC(C)C)NC(=O)[C@H](Cc1ccccc1)NC(=O)[C@H](COCc1ccccc1)NC(=O)[C@H](CO)NC(=O)CN)C(C)C)C(=O)N[C@@H](CCC(N)=O)C(=O)N1CCC[C@H]1C(=O)N[C@@H](CCCNC(=N)N)C(=O)O` [Compound 67, [Ser^3(Bzl)]-hGhrelin] was run?
Its EC50 is 7.6 nM.

same assay, conditions: Ca-releasing activity EC50, CHO-GHSR62 cells (CHO cells expressing rat GHS receptor), FLIPR

With `CC(C)C[C@H](NC(=O)[C@H](CCCCN)NC(=O)[C@H](C)NC(=O)[C@@H]1CCCN1C(=O)[C@@H]1CCCN1C(=O)[C@H](CCCCN)NC(=O)[C@H](CCCCN)NC(=O)[C@H](CO)NC(=O)[C@H](CCC(=O)O)NC(=O)[C@H](CCCCN)NC(=O)[C@H](CCCNC(=N)N)NC(=O)[C@H](CCC(N)=O)NC(=O)[C@H](CCC(N)=O)NC(=O)[C@@H](NC(=O)[C@H](CCCNC(=N)N)NC(=O)[C@H](CCC(N)=O)NC(=O)[C@H](Cc1c[nH]cn1)NC(=O)[C@H](CCC(=O)O)NC(=O)[C@@H]1CCCN1C(=O)[C@H](CO)NC(=O)[C@H](CC(C)C)NC(=O)[C@H](Cc1ccccc1)NC(=O)[C@H](CSC(c1ccccc1)(c1ccccc1)c1ccccc1)NC(=O)[C@H](CO)NC(=O)CN)C(C)C)C(=O)N[C@@H](CCC(N)=O)C(=O)N1CCC[C@H]1C(=O)N[C@@H](CCCNC(=N)N)C(=O)O` [Compound 68, [Cys^3(Trityl)]-hGhrelin] as the molecule, how does the EC50 read?
The EC50 was 20 nM.
